{"source": "PubChem BioAssay (NCI)", "test_in_all_cases": "DTP human tumour cell line panel, 48 h", "key": {"786-0 renal": {"tested_on": "786-0 renal"}, "A498 renal": {"tested_on": "A498 renal"}, "A549 NSCLC": {"tested_on": "A549 NSCLC"}, "ACHN renal": {"tested_on": "ACHN renal"}, "CAKI-1 renal": {"tested_on": "CAKI-1 renal"}, "CCRF-CEM leukemia": {"tested_on": "CCRF-CEM leukemia"}, "COLO 205 colon": {"tested_on": "COLO 205 colon"}, "DLD-1 colon": {"tested_on": "DLD-1 colon"}, "DMS 114 small cell lung": {"tested_on": "DMS 114 small cell lung"}, "DMS 273 small cell lung": {"tested_on": "DMS 273 small cell lung"}, "EKVX NSCLC": {"tested_on": "EKVX NSCLC"}, "HCC-2998 colon": {"tested_on": "HCC-2998 colon"}, "HCT-116 colon": {"tested_on": "HCT-116 colon"}, "HCT-15 colon": {"tested_on": "HCT-15 colon"}, "HL-60(TB) leukemia": {"tested_on": "HL-60(TB) leukemia"}, "HOP-62 NSCLC": {"tested_on": "HOP-62 NSCLC"}, "HOP-92 NSCLC": {"tested_on": "HOP-92 NSCLC"}, "HS 578T breast": {"tested_on": "HS 578T breast"}, "HT29 colon": {"tested_on": "HT29 colon"}, "KM20L2 colon": {"tested_on": "KM20L2 colon"}, "LOX IMVI melanoma": {"tested_on": "LOX IMVI melanoma"}, "LXFL 529 NSCLC": {"tested_on": "LXFL 529 NSCLC"}, "M14 melanoma": {"tested_on": "M14 melanoma"}, "M19-MEL melanoma": {"tested_on": "M19-MEL melanoma"}, "MALME-3M melanoma": {"tested_on": "MALME-3M melanoma"}, "MDA-MB-231 breast": {"tested_on": "MDA-MB-231 breast"}, "MDA-MB-435": {"tested_on": "MDA-MB-435"}, "MDA-N": {"tested_on": "MDA-N"}, "NCI-H226 lung": {"tested_on": "NCI-H226 lung"}, "NCI-H23 lung": {"tested_on": "NCI-H23 lung"}, "NCI-H460 lung": {"tested_on": "NCI-H460 lung"}, "NCI-H522 lung": {"tested_on": "NCI-H522 lung"}, "OVCAR-3 ovarian": {"tested_on": "OVCAR-3 ovarian"}, "OVCAR-4 ovarian": {"tested_on": "OVCAR-4 ovarian"}, "OVCAR-5 ovarian": {"tested_on": "OVCAR-5 ovarian"}, "OVCAR-8 ovarian": {"tested_on": "OVCAR-8 ovarian"}, "RPMI-8226 leukemia": {"tested_on": "RPMI-8226 leukemia"}, "RXF 393 renal": {"tested_on": "RXF 393 renal"}, "SF-268 CNS": {"tested_on": "SF-268 CNS"}, "SF-295 CNS": {"tested_on": "SF-295 CNS"}, "SF-539 CNS": {"tested_on": "SF-539 CNS"}, "SK-MEL-2 melanoma": {"tested_on": "SK-MEL-2 melanoma"}, "SK-MEL-28 melanoma": {"tested_on": "SK-MEL-28 melanoma"}, "SK-MEL-5 melanoma": {"tested_on": "SK-MEL-5 melanoma"}, "SN12C renal": {"tested_on": "SN12C renal"}, "SNB-19 CNS": {"tested_on": "SNB-19 CNS"}, "SNB-75 CNS": {"tested_on": "SNB-75 CNS"}, "SNB-78 CNS": {"tested_on": "SNB-78 CNS"}, "SR leukemia": {"tested_on": "SR leukemia"}, "UACC-257 melanoma": {"tested_on": "UACC-257 melanoma"}, "UO-31 renal": {"tested_on": "UO-31 renal"}}, "note": "Several values for one entry are separate records, joined by “and”; a condition that tells them apart may be missing. Equal entries are not always repeated.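 Test compounds were applied to cells in 96-well plates for 48 hours at 5 doses. GI50 is the concentration that inhibits growth by half. TGI marks complete inhibition of growth.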"}
{"smiles": "CCc1ccc(/C=C\\c2cc(OC)c(OC)c(OC)c2)cc1", "values": [{"measurement": "GI50", "setting": "786-0 renal", "result": 35.3, "unit": "nM"}, {"measurement": "TGI", "setting": "786-0 renal", "result": 14000, "unit": "nM"}, {"measurement": "GI50", "setting": "A498 renal", "result": 23.3, "unit": "nM"}, {"measurement": "TGI", "setting": "A498 renal", "result": "433 nM and 389 nM"}, {"measurement": "TGI", "setting": "A549 NSCLC", "result": 53100, "unit": "nM"}, {"measurement": "GI50", "setting": "ACHN renal", "result": 78.4, "unit": "nM"}, {"measurement": "TGI", "setting": "ACHN renal", "result": 31800, "unit": "nM"}, {"measurement": "GI50", "setting": "CAKI-1 renal", "result": 1020, "unit": "nM"}, {"measurement": "TGI", "setting": "CAKI-1 renal", "result": "> 100000", "unit": "nM"}, {"measurement": "GI50", "setting": "CCRF-CEM leukemia", "result": 27.4, "unit": "nM"}, {"measurement": "GI50", "setting": "COLO 205 colon", "result": 21.2, "unit": "nM"}, {"measurement": "TGI", "setting": "COLO 205 colon", "result": "134 nM and 49.9 nM"}, {"measurement": "GI50", "setting": "DLD-1 colon", "result": 35.8, "unit": "nM"}, {"measurement": "TGI", "setting": "DLD-1 colon", "result": 27800, "unit": "nM"}, {"measurement": "GI50", "setting": "DMS 114 small cell lung", "result": 15.6, "unit": "nM"}, {"measurement": "TGI", "setting": "DMS 114 small cell lung", "result": "228 nM and 57 nM"}, {"measurement": "TGI", "setting": "DMS 273 small cell lung", "result": 994, "unit": "nM"}, {"measurement": "GI50", "setting": "EKVX NSCLC", "result": 52.1, "unit": "nM"}, {"measurement": "TGI", "setting": "EKVX NSCLC", "result": "> 100000", "unit": "nM"}, {"measurement": "GI50", "setting": "HCC-2998 colon", "result": 57.7, "unit": "nM"}, {"measurement": "TGI", "setting": "HCC-2998 colon", "result": "342 nM and 438 nM"}, {"measurement": "GI50", "setting": "HCT-116 colon", "result": 18.7, "unit": "nM"}, {"measurement": "TGI", "setting": "HCT-116 colon", "result": "464 nM and 1180 nM"}, {"measurement": "GI50", "setting": "HCT-15 colon", "result": 32.7, "unit": "nM"}, {"measurement": "GI50", "setting": "HL-60(TB) leukemia", "result": 17.2, "unit": "nM"}, {"measurement": "GI50", "setting": "HOP-62 NSCLC", "result": 29.5, "unit": "nM"}, {"measurement": "TGI", "setting": "HOP-62 NSCLC", "result": 18300, "unit": "nM"}, {"measurement": "GI50", "setting": "HOP-92 NSCLC", "result": 22.2, "unit": "nM"}, {"measurement": "TGI", "setting": "HOP-92 NSCLC", "result": 233, "unit": "nM"}, {"measurement": "TGI", "setting": "HS 578T breast", "result": 106, "unit": "nM"}, {"measurement": "TGI", "setting": "HT29 colon", "result": "527 nM and 121 nM"}, {"measurement": "GI50", "setting": "KM20L2 colon", "result": 16.4, "unit": "nM"}, {"measurement": "TGI", "setting": "KM20L2 colon", "result": "125 nM and 32 nM"}, {"measurement": "TGI", "setting": "LOX IMVI melanoma", "result": 581, "unit": "nM"}, {"measurement": "GI50", "setting": "LXFL 529 NSCLC", "result": 23.3, "unit": "nM"}, {"measurement": "TGI", "setting": "LXFL 529 NSCLC", "result": 27300, "unit": "nM"}, {"measurement": "GI50", "setting": "M14 melanoma", "result": 16.8, "unit": "nM"}, {"measurement": "TGI", "setting": "M14 melanoma", "result": 19900, "unit": "nM"}, {"measurement": "GI50", "setting": "M19-MEL melanoma", "result": 39.2, "unit": "nM"}, {"measurement": "TGI", "setting": "M19-MEL melanoma", "result": "> 100000", "unit": "nM"}, {"measurement": "GI50", "setting": "MALME-3M melanoma", "result": 44.7, "unit": "nM"}, {"measurement": "TGI", "setting": "MALME-3M melanoma", "result": 37400, "unit": "nM"}, {"measurement": "TGI", "setting": "MDA-MB-231 breast", "result": 250, "unit": "nM"}, {"measurement": "TGI", "setting": "MDA-MB-435", "result": 6.6, "unit": "nM"}, {"measurement": "TGI", "setting": "MDA-N", "result": 3.95, "unit": "nM"}, {"measurement": "TGI", "setting": "NCI-H226 lung", "result": 79.2, "unit": "nM"}, {"measurement": "GI50", "setting": "NCI-H23 lung", "result": 39, "unit": "nM"}, {"measurement": "TGI", "setting": "NCI-H23 lung", "result": "338 nM and 114 nM"}, {"measurement": "GI50", "setting": "NCI-H460 lung", "result": 32.9, "unit": "nM"}, {"measurement": "TGI", "setting": "NCI-H522 lung", "result": "50.3 nM and 38.4 nM"}, {"measurement": "TGI", "setting": "OVCAR-3 ovarian", "result": 206, "unit": "nM"}, {"measurement": "TGI", "setting": "OVCAR-4 ovarian", "result": "> 100000", "unit": "nM"}, {"measurement": "GI50", "setting": "OVCAR-5 ovarian", "result": 16700, "unit": "nM"}, {"measurement": "TGI", "setting": "OVCAR-5 ovarian", "result": "> 100000", "unit": "nM"}, {"measurement": "TGI", "setting": "OVCAR-8 ovarian", "result": 581, "unit": "nM"}, {"measurement": "GI50", "setting": "RPMI-8226 leukemia", "result": 37.3, "unit": "nM"}, {"measurement": "TGI", "setting": "RXF 393 renal", "result": 78.3, "unit": "nM"}, {"measurement": "GI50", "setting": "SF-268 CNS", "result": 60, "unit": "nM"}, {"measurement": "TGI", "setting": "SF-268 CNS", "result": 46900, "unit": "nM"}, {"measurement": "TGI", "setting": "SF-295 CNS", "result": 17.1, "unit": "nM"}, {"measurement": "GI50", "setting": "SF-539 CNS", "result": 16.3, "unit": "nM"}, {"measurement": "TGI", "setting": "SF-539 CNS", "result": "44.3 nM and 54.6 nM"}, {"measurement": "GI50", "setting": "SK-MEL-2 melanoma", "result": 25.8, "unit": "nM"}, {"measurement": "TGI", "setting": "SK-MEL-2 melanoma", "result": "660 nM and 203 nM"}, {"measurement": "GI50", "setting": "SK-MEL-28 melanoma", "result": 39.5, "unit": "nM"}, {"measurement": "TGI", "setting": "SK-MEL-28 melanoma", "result": "> 100000", "unit": "nM"}, {"measurement": "TGI", "setting": "SK-MEL-5 melanoma", "result": 464, "unit": "nM"}, {"measurement": "GI50", "setting": "SN12C renal", "result": 53.9, "unit": "nM"}, {"measurement": "GI50", "setting": "SNB-19 CNS", "result": 17.6, "unit": "nM"}, {"measurement": "GI50", "setting": "SNB-75 CNS", "result": 26.1, "unit": "nM"}, {"measurement": "TGI", "setting": "SNB-75 CNS", "result": "> 100000", "unit": "nM"}, {"measurement": "GI50", "setting": "SNB-78 CNS", "result": 22.4, "unit": "nM"}, {"measurement": "TGI", "setting": "SNB-78 CNS", "result": "> 100000", "unit": "nM"}, {"measurement": "TGI", "setting": "SR leukemia", "result": 336, "unit": "nM"}, {"measurement": "GI50", "setting": "UACC-257 melanoma", "result": 80.2, "unit": "nM"}, {"measurement": "TGI", "setting": "UACC-257 melanoma", "result": 72100, "unit": "nM"}, {"measurement": "GI50", "setting": "UO-31 renal", "result": 51.2, "unit": "nM"}, {"measurement": "TGI", "setting": "UO-31 renal", "result": 81300, "unit": "nM"}]}
